Assay results taken from ChEMBL document CHEMBL4651402, “Screening of ~5500 FDA-approved drugs and clinical candidates for anti-SARS-CoV-2 activity” (2021).

Key:
[1] = in vitro; settings: chlorocebus sabaeus, Vero E6 (Vero C1008) cells
[2] = tested on: SARS-CoV-2; assay: microbe, parasite or virus in culture; settings: Severe acute respiratory syndrome coronavirus 2, Vero C1008, 48 h
[3] = tested on: SARS-CoV-2; assay: microbe, parasite or virus in culture; assay type: functional, organism-based, Chlorocebus sabaeus, Vero C1008; settings: Severe acute respiratory syndrome coronavirus 2, Vero C1008, 48 h

Row | Structure (SMILES) | CC50 at 48 h ([1]; CC50) [µM] | CC50 at 48 h ([1]; pCC50) [µM] | IC50 [2] [µM] | IC50 ([2]; read-out: pIC50 (converted)) [µM] | IC50 ([3]; read-out: IC50) [µM] | IC50 ([3]; read-out: pIC50 (converted)) [µM]
1 | CN1CCC(CN2c3ccccc3Sc3ccccc32)C1 (stereo not given) [METHDILAZINE] | 14.8 | 14.8 | 16.2 | 16.2 | > 100 | > 100
2 | CN(C)CCCn1cc(-c2ccccc2)c(-c2ccccc2)n1 [FEZOLAMINE] | 39.8 | 39.8 | 14.5 | 14.5 | > 100 | > 100
3 | CC(=O)c1ccc2c(c1)N(CCCN(C)C)c1ccccc1S2 [ACEPROMAZINE] | 22.4 | 22.4 | > 100 | > 100 | > 100 | > 100
4 | O=C1NCN(c2ccccc2)C12CCN(CCCC(c1ccc(F)cc1)c1ccc(F)cc1)CC2 | 7 | 6.92 | > 100 | > 100 | > 100 | > 100
5 | CCOC(=O)[C@H]1O[C@@H]1C(=O)N[C@@H](CC(C)C)C(=O)NCCC(C)C [ALOXISTATIN] | > 100 | > 100 | 34.3 | 33.9 | 85.1 | 85.1
6 | CCOC(=O)O[C@]1(C(=O)OCCl)CC[C@H]2[C@@H]3CCC4=CC(=O)C=C[C@]4(C)[C@H]3[C@@H](O)C[C@@]21C [LOTEPREDNOL ETABONATE] | > 20 | > 20 | – | – | > 20 | > 20
7 | COc1cccc2c1C(=O)c1c(O)c3c(c(O)c1C2=O)C[C@@](O)(C(=O)CO)C[C@@H]3O[C@H]1C[C@H](N)[C@@H](O)[C@H](C)O1 [EPIRUBICIN] | – | – | – | – | > 100 | > 100
8 | CN1CC[C@H](c2c(O)cc(O)c3c(=O)cc(-c4ccccc4Cl)oc23)[C@H](O)C1 [ALVOCIDIB] | – | – | > 20 | > 20 | > 10 | > 10
9 | CSc1ccc2c(c1)N(CCC1CCCCN1C)c1ccccc1S2 (stereo not given) [THIORIDAZINE] | ~6.38 | ~6.31 | – | – | – | –
10 | CN(C)CCCN1c2ccccc2CCc2ccc(Cl)cc21 [CLOMIPRAMINE] | 16 | 15.8 | – | – | – | –
11 | CCC1=C[C@@H]2CN(C1)Cc1c([nH]c3ccccc13)[C@@](C(=O)OC)(c1cc3c(cc1OC)N(C)[C@H]1[C@@](O)(C(=O)OC)[C@H](OC(C)=O)[C@]4(CC)C=CCN5CC[C@]31[C@@H]54)C2 [VINORELBINE] | 14.5 | 14.5 | – | – | > 20 | > 20
12 | COc1cc2c(c(OC)c1OC)-c1ccc(OC)c(=O)cc1[C@@H](NC(C)=O)CC2 [COLCHICINE] | – | – | > 100 | > 100 | > 100 | > 100
13 | CCN(CC)CCOc1ccc(C(=C(Cl)c2ccccc2)c2ccccc2)cc1 [CLOMIPHENE] | – | – | > 20 | > 20 | > 20 | > 20
14 | NCCCCCN | – | – | – | – | > 20 | > 20
15 | CCOC(=O)C1=C(C)NC(C)=C(C(=O)OCC)C1c1ccccc1/C=C/C(=O)OC(C)(C)C [LACIDIPINE] | 7.24 | 7.24 | > 10 | > 10 | – | –
16 | CN(C)C(=O)COC(=O)Cc1ccc(OC(=O)c2ccc(NC(=N)N)cc2)cc1 [CAMOSTAT] | – | – | > 20 | > 20 | > 100 | > 100
17 | COc1nc(N)nc2c1ncn2[C@@H]1O[C@H](COP(=O)(N[C@@H](C)C(=O)OCC(C)(C)C)Oc2cccc3ccccc23)[C@@H](O)[C@@]1(C)O (stereo not given in full) [BMS-986094] | – | – | > 20 | > 20 | > 20 | > 20
18 | CC(C)CN(C[C@H](O)[C@H](Cc1ccccc1)NC(=O)O[C@H]1CO[C@@H]2OCC[C@@H]21)S(=O)(=O)c1ccc(N)cc1 | – | – | > 20 | > 20 | > 20 | > 20
19 | c1cc(OCCCN2CCCCC2)ccc1CN1CCCCC1 [JNJ-5207852] | – | – | > 20 | > 20 | > 20 | > 20
20 | CC(COc1ccccc1)N(CCCl)Cc1ccccc1 (stereo not given) [PHENOXYBENZAMINE] | – | – | 20 | 20 | > 100 | > 100
21 | O=C1OC2(c3ccc(O)cc3Oc3cc(O)ccc32)c2ccccc21 [FLUORESCEIN] | > 20 | > 20 | – | – | > 0.309 | > 0.309
22 | CN1c2c([nH]c(N)nc2=O)NCC1CNc1ccc(C(=O)N[C@@H](CCC(=O)O)C(=O)O)cc1 (stereo not given in full) | – | – | – | – | > 20 | > 20
23 | CCOc1cc2ncc(C#N)c(Nc3ccc(OCc4ccccn4)c(Cl)c3)c2cc1NC(=O)/C=C/CN(C)C [NERATINIB] | > 10 | > 10 | – | – | > 10 | > 10
24 | Nc1ccn([C@@H]2S[C@H](CO)[C@@H](O)[C@H]2F)c(=O)n1 | – | – | > 20 | > 20 | > 20 | > 20

Row | Structure (SMILES) | CC50 at 48 h ([1]; CC50) [µM] | CC50 at 48 h ([1]; pCC50) [µM] | IC50 [2] [µM] | IC50 ([2]; read-out: pIC50 (converted)) [µM] | IC50 ([3]; read-out: IC50) [µM] | IC50 ([3]; read-out: pIC50 (converted)) [µM]
25 | CCOc1nc(N)nc2c1ncn2[C@@H]1O[C@@H]2CO[P@](=O)(OC(C)C)O[C@H]2[C@@]1(C)F | – | – | > 20 | > 20 | > 50.1 | > 50.1
26 | Nc1ccn([C@@H]2O[C@H](CO)[C@@H](O)[C@@H]2O)c(=O)n1 [CYTARABINE] | – | – | > 50.1 | > 50.1 | > 20 | > 20
27 | CC(C)[C@H](C(=O)Nc1ccc(C(=O)NO)cc1)c1ccccc1 [AR-42] | 0.851 | 0.851 | > 20 | > 20 | – | –
28 | CC1(C)S[C@@H]2[C@H](NC(=O)C(C(=O)O)c3ccccc3)C(=O)N2[C@H]1C(=O)O (stereo not given in full) [CARBENICILLIN] | > 20 | > 20 | – | – | > 20 | > 20
29 | Cc1nc(OCCCCCN2CCCCC2)cc(-c2ccc(F)cc2)n1 [ENECADIN] | – | – | 1.74 | 1.74 | 21.9 | 21.9
30 | CC(C)C(=O)OC[C@H]1O[C@@H](n2cc/c(=N\O)[nH]c2=O)[C@H](O)[C@@H]1O [MOLNUPIRAVIR] | – | – | 14.1 | 14.1 | ~4.56 | ~4.57
31 | Nc1ccn([C@@H]2S[C@H](CO)[C@@H](O)[C@@H]2O)c(=O)n1 [THIARABINE] | – | – | > 20 | > 20 | ~12.3 | ~12.3
32 | CCOC(=O)c1c(CSc2ccccc2)n(C)c2cc(Br)c(O)c(CN(C)C)c12 [UMIFENOVIR] | – | – | > 100 | > 100 | > 100 | > 100
33 | CN1CC(=O)N=C1NC(=O)Nc1cccc(Cl)c1 [FENOBAM ANHYDROUS] | – | – | > 20 | > 20 | > 25.1 | > 25.1
34 | CN1[C@@H]2CC[C@H]1CC(OC(c1ccccc1)c1ccccc1)C2 (stereo not given in full) | ~46.8 | ~46.8 | – | – | – | –
35 | CN(C)C/C=C(\c1ccc(Br)cc1)c1cccnc1 | > 10 | > 10 | > 20 | > 20 | – | –
36 | Cc1nc2ccc(Oc3ccccc3)cc2c2c1CCN2CCc1ccccc1 | – | – | > 20 | > 20 | ~4.9 | ~4.9
37 | O=C1CCc2ccc(OCCCCN3CCN(c4cccc(Cl)c4Cl)CC3)cc2N1 [ARIPIPRAZOLE] | 11.4 | 11.2 | – | – | – | –
38 | COc1ccc(CCN2CCC(Nc3nc4ccccc4n3Cc3ccc(F)cc3)CC2)cc1 [ASTEMIZOLE] | 7.5 | 7.41 | – | – | – | –
39 | CO/N=C(\C(=O)N[C@@H]1C(=O)N2C(C(=O)OC(C)OC(C)=O)=C(COC(N)=O)CS[C@H]12)c1ccco1 (stereo not given in full) [CEFUROXIME AXETIL] | > 20 | > 20 | – | – | > 20 | > 20
40 | CN(C)C(=O)C(CCN1CCC(O)(c2ccc(Cl)cc2)CC1)(c1ccccc1)c1ccccc1 [LOPERAMIDE] | ~22 | ~21.9 | – | – | – | –
41 | OCCN1CCN(CCCN2c3ccccc3Sc3ccc(C(F)(F)F)cc32)CC1 [FLUPHENAZINE] | 7.76 | 7.76 | – | – | – | –
42 | CC[C@@H](C(=O)[C@@H](C)[C@@H](O)[C@H](C)[C@@H]1O[C@@H]([C@@H](CC)C(=O)O)CC[C@@H]1C)[C@H]1O[C@]2(C=C[C@@H](O)[C@]3(CC[C@@](C)([C@H]4CC[C@](O)(CC)[C@H](C)O4)O3)O2)[C@H](C)C[C@@H]1C [SALINOMYCIN] | – | – | > 20 | > 20 | 1.29 | 1.29
43 | CCC(C)n1ncn(-c2ccc(N3CCN(c4ccc(OCC5COC(Cn6cncn6)(c6ccc(Cl)cc6Cl)O5)cc4)CC3)cc2)c1=O (stereo not given) [ITRACONAZOLE] | > 100 | > 100 | > 100 | > 100 | – | –
44 | COc1ccc(C[C@@H]2c3cc(OC)c(OC)cc3CC[N@+]2(C)CCC(=O)OCCCCCOC(=O)CC[N@@+]2(C)CCc3cc(OC)c(OC)cc3[C@H]2Cc2ccc(OC)c(OC)c2)cc1OC | > 20 | > 20 | – | – | > 20 | > 20
45 | Cc1c(-c2ccc(-c3ccccc3F)cc2)nc2ccc(F)cc2c1C(=O)O [BREQUINAR] | – | – | > 20 | > 20 | > 20 | > 20
46 | CN(C[C@@H]1COCCO1)S(=O)(=O)Nc1ccc2ccc3ncc(-c4cnn(C)c4)cc3c(=O)c2c1 [MK-2461] | – | – | > 20 | > 20 | > 20 | > 20
47 | CCOc1ccc(-n2c([C@@H](C)N(Cc3cccnc3)C(=O)Cc3ccc(OC(F)(F)F)cc3)nc3ncccc3c2=O)cc1 (racemic) | – | – | > 20 | > 20 | > 20 | > 20
48 | CC[C@@H]1C(=O)N(C)c2cnc(Nc3ccc(C(=O)NC4CCN(C)CC4)cc3OC)nc2N1C1CCCC1 [BI-2536] | 0.603 | 0.603 | – | – | – | –
